Target: human DPP1 enzyme (Homo sapiens (Human), UniProt P53634)
Test: Human DPP1 enzyme IC50 assay
Format: biochemical
Conditions: recombinant human DPP1, H-Gly-Arg-AMC substrate 400 μM
Method: Test articles were applied to activated human DPP1 enzyme in Assay Buffer (25 mM MES pH 6.0, 50 mM NaCl, 5 mM DTT) in a total reaction volume of 125 μL. 25 μL of compound in Assay Buffer plus 5% DMSO was first added to 50 μL of activated human DPP1 enzyme at a concentration of 1 ng/μL and allowed to pre-incubate for 10 minutes at 37° C. after which 50 μL of 1000 μM H-Gly-Arg-AMC substrate (Bachem; St. Torrance, CA) was added, giving final substrate concentration of 400 μM and a final DMSO concentration of 1%. Substrate cleavage was measured for 90 minutes at 37° C., with fluorescence at Excitation/Emission 350/450 nm measured every 5 minutes. DPP1 concentration was interpolated based on its activity relative to a standard curve of activated human recombinant DPP1 enzyme. IC50 values for each compound were calculated via the XLFit (IDBS Version 5.3.1.3) Add-On to Microsoft Excel using the four parameter fit equation y={A+[(B-A)]/[1+((C/x)^D)]}, which appears as equation number 205 (4 Parameter Logistic Model or Sigmoidal Dose-Response Model) in XLFit. Default constraints were used for each Parameter.

Sequence of human DPP1 enzyme (P53634 25-134): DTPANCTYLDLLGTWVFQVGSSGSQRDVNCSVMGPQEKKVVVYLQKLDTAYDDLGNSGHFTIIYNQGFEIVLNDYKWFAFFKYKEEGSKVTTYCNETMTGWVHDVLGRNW
Sequence of human DPP1 enzyme (P53634 231-394): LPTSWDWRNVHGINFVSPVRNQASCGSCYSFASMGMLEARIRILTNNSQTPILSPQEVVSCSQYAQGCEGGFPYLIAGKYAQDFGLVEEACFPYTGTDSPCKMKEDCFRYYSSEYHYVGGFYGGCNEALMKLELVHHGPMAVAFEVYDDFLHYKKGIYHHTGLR
Sequence of human DPP1 enzyme (P53634 395-463): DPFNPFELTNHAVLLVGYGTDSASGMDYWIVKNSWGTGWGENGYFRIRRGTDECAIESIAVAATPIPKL

In the case of `C[C@@H](N)[C@H](O)C(=O)N[C@H](C#N)Cc1ccc(-c2ccc3oc(=O)n(C)c3c2)cc1` [Compound 102A], the IC50 is reported as ≥ 15 nM.

For `C[C@H](N)[C@H](O)C(=O)N[C@H](C#N)Cc1ccc(-c2ccc3oc(=O)n(C)c3c2)cc1` [Compound 102C], the IC50 was ≥ 15 nM.

In the case of `CN(C)C[C@@H](O)C(=O)N[C@H](C#N)Cc1ccc(-c2ccc3oc(=O)n(C)c3c2)cc1` [Compound 104, (2R)—N-[(1S)-1-cyano-2-[4-(3-methyl-2-oxo-1,3-benzoxazol-5-yl)phenyl]ethyl]-3-(dimethylamino)-2-hydroxypropanamide], the IC50 is reported as ≥ 15 nM.

In the case of `CO[C@H](CN(C)C)C(=O)N[C@H](C#N)Cc1ccc(-c2ccc3oc(=O)n(C)c3c2)cc1` [Compound 112, (2R)—N-[(1S)-1-cyano-2-[4-(3-methyl-2-oxo-1,3-benzoxazol-5-yl)phenyl]ethyl]-3-(dimethylamino)-2-methoxypropanamide], the IC50 is reported as ≥ 15 nM.

`CN(C)C[C@@H](O)CC(=O)N[C@H](C#N)Cc1ccc(-c2ccc3oc(=O)n(C)c3c2)cc1` [Compound 113, (3S)—N-[(1S)-1-cyano-2-[4-(3-methyl-2-oxo-1,3-benzoxazol-5-yl)phenyl]ethyl]-4-(dimethylamino)-3-hydroxybutanamide] was tested, and the IC50 was ≥ 15 nM.

For `CCN(CC)C[C@H](O)C(=O)N[C@H](C#N)Cc1ccc(-c2ccc3oc(=O)n(C)c3c2)cc1` [Compound 115, (2S)—N-[(1S)-1-cyano-2-[4-(3-methyl-2-oxo-1,3-benzoxazol-5-yl)phenyl]ethyl]-3-(diethylamino)-2-hydroxypropanamide], the IC50 was ≥ 15 nM.

`CCN(CC)C[C@@H](O)C(=O)N[C@H](C#N)Cc1ccc(-c2ccc3oc(=O)n(C)c3c2)cc1` [Compound 116, (2R)—N-[(1S)-1-cyano-2-[4-(3-methyl-2-oxo-1,3-benzoxazol-5-yl)phenyl]ethyl]-3-(diethylamino)-2-hydroxypropanamide] was tested, and the IC50 was ≥ 15 nM.

With `CN(C)C[C@H](O)CC(=O)N[C@H](C#N)Cc1ccc(-c2ccc3oc(=O)n(C)c3c2)cc1` [Compound 118, (3R)—N-[(1S)-1-cyano-2-[4-(3-methyl-2-oxo-1,3-benzoxazol-5-yl)phenyl]ethyl]-4-(dimethylamino)-3-hydroxybutanamide] the IC50 was ≥ 15 nM.

For `Cn1c(=O)oc2ccc(-c3ccc(C[C@@H](C#N)NC(=O)[C@@H](O)CN4CCCC4)cc3)cc21` [Compound 120, (2S)—N-[(1S)-1-cyano-2-[4-(3-methyl-2-oxo-1,3-benzoxazol-5-yl)phenyl]ethyl]-2-hydroxy-3-(pyrrolidin-1-yl)propanamide], the IC50 was ≥ 15 nM.

`Cn1c(=O)oc2ccc(-c3ccc(C[C@@H](C#N)NC(=O)[C@@H](O)CN4CCOCC4)cc3)cc21` [Compound 121, (2S)—N-[(1S)-1-cyano-2-[4-(3-methyl-2-oxo-1,3-benzoxazol-5-yl)phenyl]ethyl]-2-hydroxy-3-(morpholin-4-yl)propanamide] was tested, and the IC50 was ≥ 15 nM.

In the case of `CCN(C)C[C@H](OC)C(=O)N[C@H](C#N)Cc1ccc(-c2ccc3oc(=O)n(C)c3c2)cc1` [Compound 130, (2S)—N-[(1S)-1-cyano-2-[4-(3-methyl-2-oxo-1,3-benzoxazol-5-yl)phenyl]ethyl]-3-[ethyl(methyl)amino]-2-methoxypropanamide], the IC50 is reported as ≥ 15 nM.

In the case of `CC(CO)CC(N)C(=O)N[C@H](C#N)Cc1ccc(-c2ccc3oc(=O)n(C)c3c2)cc1` (stereo partly drawn) [Compound 168, 2-amino-N-[(1S)-1-cyano-2-[4-(3-methyl-2-oxo-1,3-benzoxazol-5-yl)phenyl]ethyl]-5-hydroxy-4-methylpentanamide], the IC50 is reported as ≥ 15 nM.

In the case of `C[C@@H](O)[C@@](C)(N)C(=O)N[C@H](C#N)Cc1ccc(-c2ccc3oc(=O)n(C)c3c2)cc1` [Compound 171C, (2R,3R)-2-amino-N-[(1S)-1-cyano-2-[4-(3-methyl-2-oxo-1,3-benzoxazol-5-yl)phenyl]ethyl]-3-hydroxy-2-methylbutanamide], the IC50 is reported as ≥ 15 nM.

In the case of `CC(O)CNCC(=O)N[C@H](C#N)Cc1ccc(-c2ccc3oc(=O)n(C)c3c2)cc1` (stereo partly drawn) [Compound 174, N—((S)-1-cyano-2-(4-(3-methyl-2-oxo-2,3-dihydrobenzo[d]oxazol-5-yl)phenyl)ethyl)-2-((2-hydroxypropyl)amino)acetamide], the IC50 is reported as ≥ 15 nM.

In the case of `Cn1c(=O)oc2ccc(-c3ccc(C[C@@H](C#N)NC(=O)CC(N)c4ccccc4)cc3)cc21` (stereo partly drawn) [Compound 189, 3-amino-N-[(1S)-1-cyano-2-[4-(3-methyl-2-oxo-2,3-dihydro-1,3-benzoxazol-5-yl)phenyl]ethyl]-3-phenylpropanamide], the IC50 is reported as ≥ 15 nM.

In the case of `Cn1c(=O)oc2ccc(-c3ccc(C[C@@H](C#N)NC(=O)C(CN)Cc4cccnc4)cc3)cc21` (stereo partly drawn) [Compound 191, 3-Amino-N-[(1S)-1-cyano-2-[4-(3-methyl-2-oxo-1,3-benzoxazol-5-yl)phenyl]ethyl]-2-(pyridin-3-ylmethyl) propanamide], the IC50 is reported as ≥ 15 nM.

For `Cc1ccccc1CC(CN)C(=O)N[C@H](C#N)Cc1ccc(-c2ccc3oc(=O)n(C)c3c2)cc1` (stereo partly shown) [Compound 192], the IC50 was ≥ 15 nM.

For `Cc1ccccc1C[C@H](CN)C(=O)N[C@H](C#N)Cc1ccc(-c2ccc3oc(=O)n(C)c3c2)cc1` [Compound 193, (2R)-3-amino-N-[(1S)-1-cyano-2-[4-(3-methyl-2-oxo-1,3-benzoxazol-5-yl)phenyl]ethyl]-2-[(2-methylphenyl)methyl]propanamide], the IC50 was ≥ 15 nM.

In the case of `Cc1ccccc1C[C@@H](CN)C(=O)N[C@H](C#N)Cc1ccc(-c2ccc3oc(=O)n(C)c3c2)cc1` [Compound 194, (2S)-3-amino-N-[(1S)-1-cyano-2-[4-(3-methyl-2-oxo-1,3-benzoxazol-5-yl)phenyl]ethyl]-2-[(2-methylphenyl)methyl]propanamide], the IC50 is reported as ≥ 15 nM.

In the case of `Cn1c(=O)oc2ccc(-c3ccc(C[C@@H](C#N)NC(=O)C(C)(CN)Cc4ccccc4F)cc3)cc21` (stereo partly drawn) [Compound 196, 3-Amino-N-[(1S)-1-cyano-2-[4-(3-methyl-2-oxo-1,3-benzoxazol-5-yl)phenyl]ethyl]-2-[(2-fluorophenyl)methyl]-2-methylpropanamide], the IC50 is reported as ≥ 15 nM.

In the case of `Cn1c(=O)oc2ccc(-c3ccc(C[C@@H](C#N)NC(=O)C(C)(CN)Cc4c(F)cccc4Cl)cc3)cc21` (stereo partly drawn) [Compound 197, 3-amino-2-[(2-chloro-6-fluorophenyl)methyl]-N-[(1S)-1-cyano-2-[4-(3-methyl-2-oxo-1,3-benzoxazol-5-yl)phenyl]ethyl]-2-methylpropanamide], the IC50 is reported as ≥ 15 nM.

`Cc1ccccc1[C@@H](N)CC(=O)N[C@H](C#N)Cc1ccc(-c2ccc3oc(=O)n(C)c3c2)cc1` [Compound 198, (3S)-3-amino-N-[(1S)-1-cyano-2-[4-(3-methyl-2-oxo-1,3-benzoxazol-5-yl)phenyl]ethyl]-3-(2-methylphenyl)propanamide] was tested, and the IC50 was ≥ 15 nM.

With `Cn1c(=O)oc2ccc(-c3ccc(C[C@@H](C#N)NC(=O)C(C)(N)c4ccc(O)cc4)cc3)cc21` (stereo partly drawn) [Compound 200, 2-amino-N-[(1S)-1-cyano-2-[4-(3-methyl-2-oxo-1,3-benzoxazol-5-yl)phenyl]ethyl]-2-(4-hydroxyphenyl)propanamide] the IC50 was ≥ 15 nM.

With `Cn1c(=O)oc2ccc(-c3ccc(C[C@@H](C#N)NC(=O)C(C)(N)c4cccnc4)cc3)cc21` (stereo partly drawn) [Compound 216, 2-amino-N-[(1S)-1-cyano-2-[4-(3-methyl-2-oxo-1,3-benzoxazol-5-yl)phenyl]ethyl]-2-(pyridin-3-yl)propanamide] the IC50 was ≥ 15 nM.

`Cn1c(=O)oc2ccc(-c3ccc(C[C@@H](C#N)NC(=O)C(N)Cc4cncc(O)c4)cc3)cc21` (stereo partly drawn) [Compound 217, 2-amino-N-[(1S)-1-cyano-2-[4-(3-methyl-2-oxo-1,3-benzoxazol-5-yl)phenyl]ethyl]-3-(5-hydroxypyridin-3-yl)propanamide] was tested, and the IC50 was ≥ 15 nM.

In the case of `Cn1c(=O)oc2ccc(-c3ccc(C[C@@H](C#N)NC(=O)C[C@@H](N)Cc4cccc(O)c4)cc3)cc21` [Compound 225, (3S)-3-amino-N-[(1S)-1-cyano-2-[4-(3-methyl-2-oxo-1,3-benzoxazol-5-yl)phenyl]ethyl]-4-(3-hydroxyphenyl)butanamide], the IC50 is reported as ≥ 15 nM.

In the case of `Cn1c(=O)oc2ccc(-c3ccc(C[C@@H](C#N)NC(=O)C[C@@H](N)C4CCCO4)cc3)cc21` (stereo partly drawn) [Compound 226, (3R)-3-amino-N—((S)-1-cyano-2-(4-(3-methyl-2-oxo-2,3-dihydrobenzo[d]oxazol-5-yl)phenyl)ethyl)-3-(tetrahydrofuran-2-yl)propanamide], the IC50 is reported as ≥ 15 nM.

With `Cn1c(=O)oc2ccc(-c3ccc(C[C@@H](C#N)NC(=O)C[C@H](N)c4ccccc4O)cc3)cc21` [Compound 227A, (3S)-3-amino-N-[(1S)-1-cyano-2-[4-(3-methyl-2-oxo-1,3-benzoxazol-5-yl)phenyl]ethyl]-3-(2-hydroxyphenyl)propenamide] the IC50 was ≥ 15 nM.

With `Cn1c(=O)oc2ccc(-c3ccc(C[C@@H](C#N)NC(=O)C[C@@H](N)c4ccccc4O)cc3)cc21` [Compound 227B, (3R)-3-amino-N-[(1S)-1-cyano-2-[4-(3-methyl-2-oxo-1,3-benzoxazol-5-yl)phenyl]ethyl]-3-(2-hydroxyphenyl)propanamide] the IC50 was ≥ 15 nM.

`Cn1c(=O)oc2ccc(-c3ccc(C[C@@H](C#N)NC(=O)CC(N)c4cocn4)cc3)cc21` (stereo partly drawn) [Compound 229, 3-amino-N-[(1S)-1-cyano-2-[4-(3-methyl-2-oxo-1,3-benzoxazol-5-yl)phenyl]ethyl]-3-(1,3-oxazol-4-yl)propanamide] was tested, and the IC50 was ≥ 15 nM.

`Cn1c(=O)oc2ccc(-c3ccc(C[C@@H](C#N)NC(=O)CC(N)Cc4cocn4)cc3)cc21` (stereo partly drawn) [Compound 230, 3-amino-N-[(1S)-1-cyano-2-[4-(3-methyl-2-oxo-1,3-benzoxazol-5-yl)phenyl]ethyl]-4-(1,3-oxazol-4-yl)butanamide] was tested, and the IC50 was ≥ 15 nM.
